Results on eight compounds are retold here after patent US12624039B2, “BTK inhibitors” (DIZAL (JIANGSU) PHARMACEUTICAL CO., LTD., priority 2020, dated 2026).

Data set [1] can be described thus: DMSO solubility. Format: physicochemical.
A short description of data set [2]: Protein binding in human plasma by equilibrium dialysis. Format: in vitro ADME. To be noted: 18 hours at 37° C.; for fraction unbound at 18 h, 5 μM: human, plasma, pH 7.4, human plasma, read-out: hPPB (fu %); for hPPB (fu %): human plasma, 5 μM, fraction unbound. The method, then: [formula] DF means the dilution factor. Procedure for Protein Binding Measurements in Human Plasma by Using Equilibrium Dialysis
Add 597 μL of blank plasma into each vial of a new plastic plate or separate plastic tube by addition of 3 μL of the working solution of each cassette, vortex at 1,000 rpm for 5 minutes. The final percent volume of organic solvent is 0.5% and the final concentration for test compound is 5 μM. Immediately transfer 50 μL of the spiked plasma suspension to a 96-well plate to act as T=0 control sample. The samples are treated the same as the samples after incubation. Place all remaining spiked plasma in the incubator for the duration of the study.
Place inserts open end up into the wells of the base plate. Add 500 μL of phosphate buffer (pH 7.4) to the buffer chamber, which is indicated by the white ring. Add 300 μL of spiked plasma sample into the sample chamber, which is indicated by the red ring. Cover the unit with gas permeable lid and incubate for 18 hours at 37° C. at 300 rpm with 5% CO2 on an orbital shaker in the CO2 incubator. At the end of incubation, remove lid and pipette 50 μL of post-dialysis samples from both buffer and plasma chambers into separated 96-well plate for analysis, respectively.
At the same time, the remaining spiked plasma sample in the plastic plate or separate plastic tube is incubated for 18 hours at 37° C. with 5% CO2 in the CO2 incubator. At T=18 hours, transfer 50 μL of the original spiked plasma suspension to the 96-well plate for analysis.
Add 50 μL of Human plasma to the buffer samples, and an equal volume of PBS to the collected plasma samples. Vortex the plate at 1,000 rpm for 2 minutes and add 400 μL of acetonitrile containing an appropriate internal standard (IS) to precipitate protein and release compound. Vortex at 1,000 rpm for 10 minutes. Centrifuge for 30 minutes at 4,000 rpm. Transfer 250 μl of the supernatant to new 96-well plates and centrifuge again (4,000 rpm, 30 minutes). Then transfer 100 μL of the supernatant to new 96-well plates for analysis. Add 100 μL of distilled water to each sample and vortex for 5 minutes at 1,000 rpm for analysis by LC-MS/MS. All compounds are tested in singlicate at 5 μM in human plasma.
All calculations are carried out using Microsoft Excel.
Calculate the percentage of unbound, percentage of bound and recovery of test compound as follows: […]

Data set [3] addresses T1, Recombinant BTK wild type (BTK WT) (Homo sapiens, UniProt Q06187).
T1 construct: purchased Thermo fisher
As to the kind of experiment: BTK WT HTRF kinase assay. Particulars: 30 min pre-incubation, 120 min reaction. Format: biochemical. The method, then: Recombinant BTK wild type (BTK WT) was purchased from Thermo fisher.
In brief, recombinant kinases were pre-incubated in the presence or absence of compound at room temperature for 30 minutes. The reaction was initiated by the addition of the ATP and substrate peptide which could be phosphorylated by kinases in the reaction. After 120 minutes incubation, the reaction was stopped by the addition of the detection reagent mix containing EDTA.
In general terms: Time-resolved FRET reads energy transfer from a long-lived donor to a nearby acceptor.

Data set [4] can be described thus: In vitro human hepatocytes clearance assay. Format: in vitro ADME. How it is done: (§1) In Vitro Rat/Human Hepatocytes Clearance Assay
(§2) Rat hepatocytes in male gender and human hepatocytes in mixed gender were obtained from commercial vendors (e.g., BioreclamationIVT) and stored at −150° C. prior to use. 10 mM stock solutions of tested compounds were prepared in DMSO. Thawing medium and supplement incubation medium (serum-free) were placed in a 37° C. water bath for at least 15 minutes prior to use. Stock solutions were diluted to 100 μM by combining 198 μL acetonitrile and 2 μL of 10 mM stock solution.
(§3) Vials of cryopreserved hepatocytes were removed from storage, ensured that vials remain at cryogenic temperatures. The vials were thawed in a 37° C. water bath with gently shaking. Vials were kept in a water bath until all ice crystals had dissolved and were no longer visible. Vials were sprayed with 70% ethanol before being transferred to a biosafety cabinet. And then the contents were poured into the 50 mL thawing medium conical tube. Vials were centrifuged at 100 g for 10 minutes at room temperature. Thawing medium was aspirated and hepatocytes were resuspended with serum-free incubation medium to yield ^˜1.5×10^6 cells/mL.
(§4) Cell viability and density were counted using a Trypan Blue exclusion, and then cells were diluted with serum-free incubation medium to a working cell density of 1×10^6 viable cells/ml. A portion of the hepatocytes at 1×10^6 viable cells/mL was boiled for 10 min prior to adding to the plate as negative control to eliminate the enzymatic activity so that little or no substrate turnover should be observed. The inactivated hepatocytes were used to prepare negative samples, which were used to exclude the misleading factor that resulted from instability of chemical itself.
(§5) Aliquots of 247.5 μL hepatocytes were dispensed into each well of a 96-well non-coated plate. The plate was placed in the incubator on an orbital shaker for approximately 10 minutes. Aliquots of 2.5 μL of the 100 μM test compounds were added into respective wells of the non-coated 96-well plate to start the reaction. This assay was performed in duplicate. The plate was incubated in the incubator on an orbital shaker for the designed time points. 20 μL of contents were transferred and mixed with 6 volumes (120 μL) of cold acetonitrile with internal standard to terminate the reaction at time points of 5, 15, 30, 45, 60, 80 and 100 minutes. Samples were centrifuges for 20 minutes at 4000 g and aliquots of 100 μl of the supernatants were used for LC-MS/MS analysis for measurement of test compounds.
(§6) In vitro hepatocyte clearance was estimated based on determination of elimination half-life (T1/2) of compounds disappearance from their initial concentrations. Peak area ratios of each compound (test or control) to IS was calculated. Ln (% Control) versus Incubation Time (min) curve was plotted, and the slope of a linear fitting line was calculated. Drug elimination rate constant k (min-1), T1/2 (min), and in vitro intrinsic clearance CLint (μL/min/E6) was calculated according to the following equations: k=−slope T1/2=0.693/k CLint=k/Chep • Where Chep (cells×μL-1) is the cell concentration in the incubation system. Procedure for Log D Determination

Data set [5] can be described thus: In vitro rat hepatocytes clearance assay. Format: in vitro ADME. The method, then:
as §1, §2, §3, §4, §5, §6

Data set [6] concerns the target T2, p-BTK (Phospho-Btk Tyr223) in TMD-8 cells (Homo sapiens, UniProt Q06187).
T2 construct: endogenous in cells; host or cells: TMD-8
As to the kind of experiment: TMD8 cell line p-BTK Elisa assay. Format: cell-based. Particulars: for Maximal Inhibition Level: p-BTK ELISA; for pIC50: pervanadate 100 μM, Tyr223 ELISA. How it is done:
The test compounds were added to the cells and cells were incubated for 0.5 hour at 37° C., 5% CO2. Then pervanadate solution was added to the cells to make a final concentration of 100 μM, and cells were incubated for a further 1 hour at 37° C., 5% CO2. […] The plate was read on a Multiscan Spectrum reader set to 450 nm wavelengths.
(In general: In an ELISA, binding on a coated surface is turned into a signal by an enzyme label.)

pIC50: −log10 of the molar value. In brackets after ≈: the same amount, converted by molar mass. Where two headings read alike, the source gives them in different places.

T1 sequence (Q06187 whole entry): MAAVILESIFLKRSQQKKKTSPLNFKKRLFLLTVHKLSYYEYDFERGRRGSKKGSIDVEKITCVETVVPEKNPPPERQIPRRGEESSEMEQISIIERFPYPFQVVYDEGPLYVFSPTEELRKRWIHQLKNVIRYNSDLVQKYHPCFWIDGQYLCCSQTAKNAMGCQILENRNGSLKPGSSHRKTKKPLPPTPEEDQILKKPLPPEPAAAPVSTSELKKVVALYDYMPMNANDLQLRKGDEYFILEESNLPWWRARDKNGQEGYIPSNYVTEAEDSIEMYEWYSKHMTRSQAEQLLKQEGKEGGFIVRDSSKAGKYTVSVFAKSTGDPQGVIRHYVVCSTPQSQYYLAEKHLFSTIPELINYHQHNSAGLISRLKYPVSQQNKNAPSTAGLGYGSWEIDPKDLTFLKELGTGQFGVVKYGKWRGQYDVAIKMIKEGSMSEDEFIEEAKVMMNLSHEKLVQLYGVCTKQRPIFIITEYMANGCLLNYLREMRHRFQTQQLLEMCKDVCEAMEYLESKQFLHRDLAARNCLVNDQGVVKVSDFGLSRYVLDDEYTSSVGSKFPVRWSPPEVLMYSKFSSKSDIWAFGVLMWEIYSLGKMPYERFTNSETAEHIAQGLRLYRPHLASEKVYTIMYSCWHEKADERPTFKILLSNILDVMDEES
T2 sequence (Q06187 whole entry): as above

In general, solubility refers to the dissolved amount per volume that the medium holds. The pIC50 is −log10 of the IC50, conventionally taken in molar units. In turn, `Nc1nccn2c(C3CCC(CO)OC3)nc(-c3ccc(Oc4ccccc4)cc3F)c12` (single isomer, unassigned) [Compound 2, Trans-(5-(8-amino-1-(2-fluoro-4-phenoxyphenyl)imidazo[1,5-a]pyrazin-3-yl)tetrahydro-2H-pyran-2-yl)methanol] came in with a solubility in data set [1] of 15.1 µM (≈ 6.56 µg/mL). In data set [2], the fraction unbound at 18 h, 5 μM came out at 0.106. Also, the pIC50 in data set [3] is 9.22. Further, the “Human Hep Clint” value in data set [4] came to 4.6 μL/min/10∧6 cells. Moreover, the “Rat Hep Clint” value in data set [5] amounted to 6.1 μL/min/10∧6 cells. Further, in data set [6], the “Maximal Inhibition Level” value is listed as 98.4% and the negative-log IC50 (pIC50) is 7.54.

In data set [1], `Nc1nccn2c(C3CCC(CO)OC3)nc(-c3ccc(Oc4ccccc4)cc3F)c12` (single isomer, unassigned) [Compound 3, Trans-(5-(8-amino-1-(2-fluoro-4-phenoxyphenyl)imidazo[1,5-a]pyrazin-3-yl)tetrahydro-2H-pyran-2-yl)methanol] came in with a solubility of 34.1 µM (≈ 14.8 µg/mL). Also, the “hPPB (fu %)” value in data set [2] came out at 11.9%. The negative-log IC50 (pIC50) in data set [3] was 8.20. Further, the “Human Hep Clint” value in data set [4] is given as 12.9 μL/min/10∧6 cells. For the same compound, the “Rat Hep Clint” value in data set [5] came out at 8.8 μL/min/10∧6 cells. In data set [6], the “Maximal Inhibition Level” value was 96.2% and the negative logarithm of the IC50 (pIC50) was 7.11.

In data set [1] (kinetic from dmso stock), `Nc1nccn2c(C3CCC(CO)OC3)nc(-c3ccc(Oc4ccccc4)c(F)c3F)c12` (single isomer, unassigned) [Compound 4, (5-(8-amino-1-(2,3-difluoro-4-phenoxyphenyl)imidazo[1,5-a]pyrazin-3-yl)tetrahydro-2H-pyran-2-yl)methanol] gave a solubility of 63.1 µM (≈ 28.6 µg/mL). The fraction unbound at 18 h, 5 μM in data set [2] worked out at 0.088. For the same compound, the results for the pIC50 in data set [3] and in data set [6] were 9.31 and 7.51, respectively. In data set [4], the “Human Hep Clint” value was determined as 5.6 μL/min/10∧6 cells. Also, the “Rat Hep Clint” value in data set [5] is recorded as 7.2 μL/min/10∧6 cells. Besides, the “Maximal Inhibition Level” value in data set [6] is on record as 97.4%.

For the compound `Nc1nccn2c(C3CCC(CO)OC3)nc(-c3ccc(Oc4ccccc4)c(F)c3F)c12` (single isomer, unassigned) [Compound 5, (5-(8-amino-1-(2,3-difluoro-4-phenoxyphenyl)imidazo[1,5-a]pyrazin-3-yl)tetrahydro-2H-pyran-2-yl)methanol], the solubility in data set [1] came to 61.9 µM (≈ 28 µg/mL). For the same compound, the “hPPB (fu %)” value in data set [2] is 9.0%. In addition, the negative logarithm of the IC50 (pIC50) in data set [3] is 8.31. Moreover, the “Human Hep Clint” value in data set [4] is 9.0 μL/min/10∧6 cells. In data set [5], the “Rat Hep Clint” value was 9.0 μL/min/10∧6 cells. For the same compound, in data set [6], the “Maximal Inhibition Level” value is reported as 95.8% and the negative-log IC50 (pIC50) was 7.31.

`Nc1nccn2c(C3CCC(CO)OC3)nc(-c3ccc(Oc4cccc(F)c4F)cc3)c12` (single isomer, unassigned) [Compound 6, (5-(8-amino-1-(4-(2,3-difluorophenoxy)phenyl)imidazo[1,5-a]pyrazin-3-yl)tetrahydro-2H-pyran-2-yl)methanol] gave a solubility in data set [1] (kinetic from dmso stock) of 43.9 µM (≈ 19.9 µg/mL). In addition, the fraction unbound at 18 h, 5 μM in data set [2] came out at 0.075. Moreover, the negative-log IC50 (pIC50) in data set [3] was 9.21. The “Human Hep Clint” value in data set [4] worked out at 2.1 μL/min/10∧6 cells. Besides, in data set [5], the “Rat Hep Clint” value was determined as 8.2 μL/min/10∧6 cells. In data set [6], the “Maximal Inhibition Level” value worked out at 98.8% and the negative logarithm of the IC50 (pIC50) was 7.58.

In data set [1], `Nc1nccn2c(C3CCC(CO)OC3)nc(-c3ccc(Oc4cccc(F)c4F)cc3)c12` (single isomer, unassigned) [Compound 7, (5-(8-amino-1-(4-(2,3-difluorophenoxy)phenyl)imidazo[1,5-a]pyrazin-3-yl)tetrahydro-2H-pyran-2-yl)methanol] had a solubility of 45.8 µM (≈ 20.7 µg/mL). In data set [2], the “hPPB (fu %)” value is recorded as 7.3%. Moreover, the negative-log IC50 (pIC50) in data set [3] is 8.80; in data set [6], 6.86. The “Human Hep Clint” value in data set [4] is 3.3 μL/min/10∧6 cells. Further, the “Rat Hep Clint” value in data set [5] was found to be 4.9 μL/min/10∧6 cells. In addition, the “Maximal Inhibition Level” value in data set [6] turned out to be 97.9%.

The compound `Nc1ncnn2c(C3CCC(CO)OC3)nc(-c3ccc(Oc4ccccc4)cc3F)c12` (single isomer, unassigned) [Compound 8, (5-(4-amino-5-(2-fluoro-4-phenoxyphenyl)imidazo[5,1-f][1,2,4]triazin-7-yl)tetrahydro-2H-pyran-2-yl)methanol] had a solubility in data set [1] of 21.0 µM (≈ 9.14 µg/mL). Besides, the fraction unbound at 18 h, 5 μM in data set [2] amounted to 0.093. For the same compound, the pIC50 in data set [3] is 8.46; in data set [6], 7.38. The “Human Hep Clint” value in data set [4] was 6.1 μL/min/10∧6 cells. Moreover, the “Rat Hep Clint” value in data set [5] came out at 48.5 μL/min/10∧6 cells. The “Maximal Inhibition Level” value in data set [6] is 100.9%.

Turning to `Nc1ncnn2c(C3CCC(CO)OC3)nc(-c3ccc(Oc4ccccc4)cc3F)c12` (single isomer, unassigned) [Compound 9, (5-(4-amino-5-(2-fluoro-4-phenoxyphenyl)imidazo[1,5-a][1,2,4]triazin-7-yl)tetrahydro-2H-pyran-2-yl)methanol], in data set [1], the solubility is recorded as 20.3 µM (≈ 8.84 µg/mL). Also, in data set [2], the “hPPB (fu %)” value stood at 5.8%. Besides, the negative logarithm of the IC50 (pIC50) in data set [3] is 8.06. For the same compound, the “Human Hep Clint” value in data set [4] was determined as 5.9 μL/min/10∧6 cells. For the same compound, in data set [5], the “Rat Hep Clint” value is 27.2 μL/min/10∧6 cells. Besides, in data set [6], the “Maximal Inhibition Level” value turned out to be 107.7% and the pIC50 is 6.91.
